Data set [1] deals with ECHCG. Briefly: Herbicidal pre-emergence action (Table A2). The settings on record: application rate 320 g/ha; visual grading after ca. 3 weeks. The class given is in vivo, Echinochloa crus-galli. The source says:
(§1) Seeds of mono- and dicotyledonous weed plants were sown in plastic pots (double sowings with one species of mono- and one species of dicotyledonous weed plants per pot), in sandy loam, and covered with soil.

Data set [2] concerns LOLRI. Put plainly: Herbicidal pre-emergence action (Table A3). The class given is in vivo, Lolium rigidum. The settings on record: visual grading after ca. 3 weeks.
From the text: as §1

The subject of the next data set is MATIN. Briefly: Herbicidal pre-emergence action (Table A4). The class given is in vivo, Matricaria inodora. The settings on record: application rate 1280 g/ha; visual grading after ca. 3 weeks.
From the text: as §1

The subject of data set [3] is SETVI. Briefly: Herbicidal pre-emergence action (Table A5). The settings on record: visual grading after ca. 3 weeks. The class given is in vivo, Setaria viridis.
From the text: as §1

The test system of the next data set is STEME. Briefly: Herbicidal pre-emergence action (Table A6). The class given is in vivo, Stellaria media. The settings on record: visual grading after ca. 3 weeks.
From the text: as §1

The test system of data set [4] is POAAN. Put plainly: Herbicidal pre-emergence action (Table A7). The class given is in vivo, Poa annua. The settings on record: application rate 320 g/ha; visual grading after ca. 3 weeks.
From the text: as §1

In data set [5] the test system is ALOMY. Put plainly: Herbicidal pre-emergence action (Table A9). The settings on record: application rate 1280 g/ha; visual grading after ca. 3 weeks. The class given is in vivo, Alopecurus myosuroides.
From the text: as §1

Data set [6] has as its system ECHCG. Briefly: Herbicidal post-emergence action (Table B3). The settings on record: application rate 1280 g/ha; rated visually after about 3 weeks. The class given is in vivo, Echinochloa crus-galli. Here is the method:
(§2) Seeds of mono- and dicotyledonous weed plants were placed in plastic pots in sandy loam soil (doubly sown with in each case one species of mono- or dicotyledonous weed plants per pot), covered with soil and cultivated in a greenhouse under controlled growth conditions. 2 to 3 weeks after sowing, the test plants were treated at the one-leaf stage. […] After the test plants had been kept in the greenhouse under optimum growth conditions for about 3 weeks, the activity of the preparations was rated visually in comparison to untreated controls. For example, 100% activity = the plants have died, 0% activity = like control plants.

Data set [7] has as its system POAAN. Briefly: Herbicidal post-emergence action (Table B7). The class given is in vivo, Poa annua. The settings on record: application rate 1280 g/ha. Here is the method: as §2
Data set [8] concerns ALOMY. Put plainly: Herbicidal pre-emergence action, section C (Table C2). The class given is in vivo, Alopecurus myosuroides. The settings on record: application rate 320 g/ha; visual grading after ca. 3 weeks.
Data set [9] has as its system ECHCG. Put plainly: Herbicidal pre-emergence action, section C (Table C6). The class given is in vivo, Echinochloa crus-galli. The settings on record: visual grading after ca. 3 weeks.
The test system of data set [10] is SETVI. Put plainly: Herbicidal pre-emergence action, section C (Table C10). The class given is in vivo, Setaria viridis. The settings on record: visual grading after ca. 3 weeks.
Data set [11] has as its system ZEAMX. Put plainly: Pre-emergence effects on crop plants (Table D1). The class given is in vivo, Zea mays. The settings on record: crop plant, visual grading after ca. 3 weeks.
The subject of data set [12] is TRZAS. Briefly: Pre-emergence effects on crop plants (Table D2). The class given is in vivo, Triticum aestivum. The settings on record: crop plant, visual grading after ca. 3 weeks.
A further data set concerns GLXMA. Briefly: Pre-emergence effects on crop plants (Table D4). The settings on record: crop plant, visual grading after ca. 3 weeks. The class given is in vivo, Glycine max.
Data set [13] has as its system BRSNW. Put plainly: Pre-emergence effects on crop plants (Table D5). The class given is in vivo, Brassica napus. The settings on record: crop plant; application rate 320 g/ha; visual grading after ca. 3 weeks.
Data set [14] relates to ECHCG. Put plainly: Herbicidal post-emergence action, section E (Table E5). The settings on record: application rate 320 g/ha; assessed visually after ca. 3 weeks. The class given is in vivo, Echinochloa crus-galli. The source says: (§3) 2 to 3 weeks after sowing, the test plants were sprayed in the single-leaf stage.
Data set [15] has as its system ZEAMX. Put plainly: Post-emergence effects on crop plants (Table F1). The class given is in vivo, Zea mays. The settings on record: application rate 320 g/ha, crop plant ZEAMX.
From the text: as §3

Data set [16] relates to TRZAS. Briefly: Post-emergence effects on crop plants (Table F2). The class given is in vivo, Triticum aestivum. The settings on record: application rate 320 g/ha, crop plant TRZAS.
From the text: as §3

Data set [17] has as its system ORYZA. Put plainly: Post-emergence effects on crop plants (Table F3). The class given is in vivo, Oryza sativa. The settings on record: application rate 320 g/ha, crop plant ORYZA.
From the text: as §3

Data set [18] deals with BRSNW. Briefly: Post-emergence effects on crop plants (Table F5). The class given is in vivo, Brassica napus. The settings on record: crop plant BRSNW.
From the text: as §3

The test system of data set [19] is VERPE. Put plainly: Herbicidal pre-emergence action (Table A11). The class given is in vivo, Veronica persica. The settings on record: application rate 1280 g/ha; visual grading after ca. 3 weeks.
From the text: as §1

Data set [20] concerns DIGSA. Briefly: Herbicidal pre-emergence action (Table A12). The class given is in vivo, Digitaria sanguinalis. The settings on record: application rate 320 g/ha; visual grading after ca. 3 weeks.
From the text: as §1

In data set [21] the test system is DIGSA. Briefly: Herbicidal pre-emergence action, section C (Table C5). The class given is in vivo, Digitaria sanguinalis. The settings on record: application rate 320 g/ha; visual grading after ca. 3 weeks.
Data set [22] relates to LOLRI. Put plainly: Herbicidal pre-emergence action, section C (Table C7). The class given is in vivo, Lolium rigidum. The settings on record: application rate 320 g/ha; visual grading after ca. 3 weeks.
The test system of data set [23] is VERPE. Briefly: Herbicidal pre-emergence action, section C (Table C11). The class given is in vivo, Veronica persica. The settings on record: application rate 320 g/ha; visual grading after ca. 3 weeks.
The test system of a further data set is VIOTR. Put plainly: Herbicidal pre-emergence action, section C (Table C12). The class given is in vivo, Viola tricolor. The settings on record: application rate 80 g/ha; visual grading after ca. 3 weeks.
Data set [24] has as its system ORYZA. Briefly: Pre-emergence effects on crop plants (Table D3). The settings on record: crop plant, visual grading after ca. 3 weeks.

The record followed here is EP4273147A1, “SUBSTITUTED SPIROLACTAMS, SALTS THEREOF AND THEIR USE AS HERBICIDALLY ACTIVE SUBSTANCES” (Bayer Aktiengesellschaft, priority 2022, dated 2023).

Regarding `Cc1ccccc1CN1CCCC2(CCCN(Cc3ccccc3F)C2=O)C1=O` (racemic) [I-044], the “pre-emergence activity against ECHCG” value in the data set with ECHCG [1] and in the data set with ECHCG [9] (application rate 320 g/ha) was 100% throughout. In addition, in the data set with LOLRI [2] (application rate 320 g/ha), the “pre-emergence activity against LOLRI” value came out at 100%. Besides, in the data set with MATIN, the “pre-emergence activity against MATIN” value is on record as 100%. Besides, the “pre-emergence activity against SETVI” value in the data set on SETVI [3] (application rate 320 g/ha) is 90%; in the data set with SETVI [10] (application rate 80 g/ha), 100%. Moreover, in the data set with STEME (application rate 320 g/ha), the “pre-emergence activity against STEME” value was found to be 90%. The “pre-emergence activity against POAAN” value in the data set on POAAN [4] was 90%. For the same molecule, the “pre-emergence activity against ALOMY” value in the data set on ALOMY [5] stood at 90%; with ALOMY [8], 80%. The “post-emergence activity against ECHCG” value in the data set on ECHCG [6] turned out to be 90%; in the data set on ECHCG [14], 80%. In addition, the “post-emergence activity against POAAN” value in the data set with POAAN [7] came out at 90%. Also, the “pre-emergence activity against ZEAMX” value in the data set with ZEAMX [11] (application rate 80 g/ha) is on record as 0%. Besides, in the data set with TRZAS [12] (application rate 80 g/ha), the “pre-emergence activity against TRZAS” value turned out to be 0%. Further, in the data set on GLXMA (application rate 320 g/ha), the “pre-emergence activity against GLXMA” value is 0%. The “pre-emergence activity against BRSNW” value in the data set with BRSNW [13] was found to be 0%. In the data set on ZEAMX [15], the “post-emergence activity against ZEAMX” value was found to be 0%. The “post-emergence activity against TRZAS” value in the data set with TRZAS [16] came out at 10%. Also, in the data set on ORYZA [17], the “post-emergence activity against ORYZA” value turned out to be 0%. Besides, in the data set with BRSNW [18] (application rate 320 g/ha), the “post-emergence activity against BRSNW” value was determined as 0%.
Regarding `O=C1N(Cc2ccccc2F)CCCC12CCN(Cc1ccccc1Cl)C2=O` (racemic) [I-027], the “pre-emergence activity against ECHCG” value with ECHCG [1] and in the data set with ECHCG [9] (application rate 80 g/ha) was 100% in each case. The “pre-emergence activity against LOLRI” value in the data set with LOLRI [2] (application rate 1280 g/ha) was determined as 100%; with LOLRI [22] it was 90%. In the data set on MATIN, the “pre-emergence activity against MATIN” value is reported as 90%. Moreover, the “pre-emergence activity against SETVI” value in the data set on SETVI [3] (application rate 1280 g/ha) and in the data set on SETVI [10] (application rate 320 g/ha) was 100% in each case. Moreover, the “pre-emergence activity against STEME” value with STEME (application rate 1280 g/ha) was 90%. The “pre-emergence activity against POAAN” value in the data set with POAAN [4] was 100%. In addition, the “pre-emergence activity against ALOMY” value in the data set with ALOMY [5] stood at 90%; in the data set on ALOMY [8], 100%. In addition, the “pre-emergence activity against VERPE” value in the data set with VERPE [19] and in the data set with VERPE [23] was 90% each time. In addition, the “pre-emergence activity against DIGSA” value with DIGSA [20] was found to be 90%; with DIGSA [21], 100%. In addition, the “post-emergence activity against ECHCG” value in the data set with ECHCG [6] is 90%. The “post-emergence activity against POAAN” value with POAAN [7] came to 90%. In the data set with VIOTR, the “pre-emergence activity against VIOTR” value came out at 90%. In the data set with ZEAMX [11] (application rate 320 g/ha), the “pre-emergence activity against ZEAMX” value was 0%. Moreover, the “pre-emergence activity against TRZAS” value in the data set on TRZAS [12] (application rate 320 g/ha) was 0%. The “pre-emergence activity against GLXMA” value in the data set on GLXMA (application rate 80 g/ha) was determined as 0%. The “post-emergence activity against ZEAMX” value in the data set on ZEAMX [15] is on record as 0%. Further, the “post-emergence activity against TRZAS” value with TRZAS [16] is on record as 0%. In the data set with ORYZA [17], the “post-emergence activity against ORYZA” value came out at 0%. In addition, the “post-emergence activity against BRSNW” value with BRSNW [18] (application rate 80 g/ha) turned out to be 20%. Besides, the “pre-emergence activity against ORYZA” value in the data set with ORYZA [24] (application rate 320 g/ha) turned out to be 0%.
In the case of `COc1ccccc1CN1CCCC2(CCCN(Cc3ccccc3F)C2=O)C1=O` (racemic) [I-061], the “pre-emergence activity against ECHCG” value in the data set with ECHCG [1] and in the data set with ECHCG [9] (application rate 320 g/ha) was 100% each time. In addition, the “pre-emergence activity against LOLRI” value in the data set with LOLRI [2] (application rate 320 g/ha) stood at 100%. The “pre-emergence activity against MATIN” value in the data set on MATIN turned out to be 90%. Also, the “pre-emergence activity against SETVI” value with SETVI [3] (application rate 320 g/ha) and in the data set on SETVI [10] (application rate 320 g/ha) was 100% in each case. For the same molecule, the “pre-emergence activity against POAAN” value in the data set with POAAN [4] was found to be 100%. The “pre-emergence activity against ALOMY” value is on record as 90% with ALOMY [5] and 80% in the data set on ALOMY [8]. Also, the figures for the “post-emergence activity against ECHCG” value with ECHCG [6] and in the data set with ECHCG [14] were 90% and 80%, respectively. Also, the “post-emergence activity against POAAN” value in the data set with POAAN [7] is 90%. Besides, the “pre-emergence activity against ZEAMX” value with ZEAMX [11] (application rate 80 g/ha) is on record as 0%. Also, the “pre-emergence activity against GLXMA” value in the data set with GLXMA (application rate 320 g/ha) is 0%. The “pre-emergence activity against BRSNW” value in the data set with BRSNW [13] was 0%. Further, the “post-emergence activity against ZEAMX” value in the data set on ZEAMX [15] was 0%. In addition, the “post-emergence activity against TRZAS” value in the data set with TRZAS [16] was 0%. In addition, in the data set with ORYZA [17], the “post-emergence activity against ORYZA” value is listed as 0%. Further, in the data set on BRSNW [18] (application rate 320 g/ha), the “post-emergence activity against BRSNW” value came out at 0%. Also, the “pre-emergence activity against ORYZA” value in the data set on ORYZA [24] (application rate 80 g/ha) was 0%.
